According to the supplement of paper PMC10307832:

How the values were obtained:
Assay in all cases: relative viability (nuclei count vs DMSO), 5 days (fraction); higher = more cells survive
[1] = compound: CC(=O)Nc1cccc(-n2c(=O)n(C3CC3)c(=O)c3c(Nc4ccc(I)cc4F)n(C)c(=O)c(C)c32)c1 [Trametinib] + C[C@]1(O)C[C@@H](c2nc(-c3ccc4ccc(-c5ccccc5)nc4c3)c3c(N)nccn32)C1 [Linsitinib] (partner 1 µM)
Outline: (§1)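 Each reported value is a median over duplicate plates. It expresses relative viability: treated-well nuclei count divided by vehicle-well nuclei count. Lung cancer cell lines in 1536-well plates were dosed by pin tool a day after seeding, alone with one drug or with a fixed anchor-drug dose plus five library-drug doses (not always all listed) in √10 steps, and nuclei were counted after 5 days.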

[2] = compound: CC(=O)Nc1cccc(-n2c(=O)n(C3CC3)c(=O)c3c(Nc4ccc(I)cc4F)n(C)c(=O)c(C)c32)c1 [Trametinib] + O=C(c1cc(Cc2n[nH]c(=O)c3ccccc23)ccc1F)N1CCN(C(=O)C2CC2)CC1 [Olaparib] (partner 8 µM)
Outline: as §1

[3] = compound: CN1C=C(C2=CC=CC=C21)/C=C\3/C4=C(C=CC=N4)NC3=O + CC(C)C[C@H](NC(=O)[C@H](Cc1ccccc1)NC(=O)c1cnccn1)B(O)O [Bortezomib] (partner 0.002 µM)
Outline: as §1

[4] = compound: CN1C=C(C2=CC=CC=C21)/C=C\3/C4=C(C=CC=N4)NC3=O + Nc1ncn([C@H]2C[C@H](O)[C@@H](CO)O2)c(=O)n1 [Decitabine] (partner 2 µM)
Outline: as §1

Cell Line | relative viability ([1]; first compound 0.0025 µM) | relative viability ([1]; first compound 0.007906 µM) | relative viability ([1]; first compound 0.025 µM) | relative viability ([1]; first compound 0.07906 µM) | relative viability ([1]; first compound 0.25 µM) | relative viability ([2]; first compound 0.0025 µM) | relative viability ([2]; first compound 0.007906 µM) | relative viability ([2]; first compound 0.025 µM) | relative viability ([2]; first compound 0.07906 µM) | relative viability ([2]; first compound 0.25 µM) | relative viability ([3]; first compound 0.02 µM) | relative viability ([3]; first compound 0.06325 µM) | relative viability ([3]; first compound 0.2 µM) | relative viability ([3]; first compound 0.6325 µM) | relative viability ([3]; first compound 2 µM) | relative viability ([4]; first compound 0.02 µM) | relative viability ([4]; first compound 0.06325 µM) | relative viability ([4]; first compound 0.2 µM) | relative viability ([4]; first compound 0.6325 µM) | relative viability ([4]; first compound 2 µM)
LOU-NH91 | 0.864 | 0.801 | 0.771 | 0.735 | 0.526 | 0.893 | 0.829 | 0.849 | 0.809 | 0.483 | 0.473 | 0.489 | 0.468 | 0.441 | 0.485 | 0.77 | 0.799 | 0.771 | 0.713 | 0.788
LU99A | 0.593 | 0.522 | 0.441 | 0.47 | 0.291 | 0.292 | 0.277 | 0.261 | 0.263 | 0.247 | 1.16 | 1.09 | 1.09 | 1.13 | 0.964 | 0.855 | 0.877 | 0.902 | 0.848 | 0.842
LXF-289 | 0.878 | 0.818 | 0.698 | 0.628 | 0.563 | 1.01 | 0.906 | 0.803 | 0.756 | 0.665 | 0.951 | 0.992 | 1.1 | 1.02 | 1.04 | 0.403 | 0.338 | 0.425 | 0.396 | 0.381
NCI-H23 | 0.438 | 0.356 | 0.277 | 0.313 | 0.226 | 0.287 | 0.269 | 0.269 | 0.239 | 0.147 | 1.02 | 0.982 | – | 0.938 | 1.21 | 0.321 | 0.295 | 0.306 | 0.336 | 0.347
NCI-H322M | 0.896 | 0.664 | 0.601 | 0.519 | 0.459 | 0.652 | 0.631 | 0.689 | 0.518 | 0.595 | 1.22 | 1.28 | 1.22 | 1.31 | 1.25 | 0.683 | 0.708 | 0.649 | 0.648 | 0.686
NCI-H441 | 0.553 | 0.471 | 0.293 | 0.253 | 0.21 | 0.601 | 0.614 | 0.535 | 0.483 | 0.389 | 0.744 | – | 0.545 | 0.602 | 0.774 | 0.225 | 0.247 | 0.23 | 0.229 | 0.497
NCI-H460 | 0.656 | 0.265 | 0.153 | 0.0822 | 0.0212 | 0.43 | 0.265 | 0.313 | 0.217 | 0.0898 | 1.23 | 1.1 | 1.07 | – | 1.14 | 0.487 | 0.44 | 0.414 | 0.445 | 0.483
